Reference: patent US20160106106A1, “DRUG-RESISTANT MICROBE AND VARIANT MICROBE DISINFECTANT CONTAINING CHLOROUS ACID AQUEOUS SOLUTION” (HONBU SANKEI CO., LTD., priority 2013, published 2016)
Where two headings read alike, the source gives them in different places.

Legend:
[1] = tested on: Escherichia coli O157 sakai strain (1996, RIMD0509952) on chicken meat (breast meat)
[2] = tested on: Microbes of the genus Bacillus; test: Microbe disinfecting effect on microbes isolated from isolator, Bacillus; format: cell-based; conditions: average ± S.D.
Protocol: (§1) In the present Example, since the isolator for raising microbe-free mice was contaminated by environmental microbes, microbes were isolated from the isolator, and microbe disinfecting effects were examined in vitro using various antiseptics of interest.
(§2) Three species of microbes were isolated to analyze 16SrDNA.
(1) A single colony of each isolated microbe that was cultured in a BHI agar medium was cultured for two days at 37° C. in 5 mL of BHI medium. […] (3) Each agent of interest was prepared by diluting with sterile ion exchange water to have a predetermined concentration. 9 mL of each diluent was dispensed into a sterilized test tube. (4) 1 mL of the microbial solution prepared in (2) was added to the agent-containing test tube. A vortex mixer was used to mix well. (5) 1 mL was sampled from the test tube of (4) at a predetermined time. The sampling was added to and mixed with 0.05 mol/L sodium thiosulfate solution for neutralization. (6) 1 mL of the solution after the neutralization treatment was spread on a petri dish. The solution was pour-plate cultured for 24 hours at 37° C. in a BHI agar medium. The number of surviving microbes that had grown was measured.
(§3) The operation was performed three times, and microbial disinfection was evaluated by average value±standard deviation (S. D.)

MRSA = test: Growth suppressing effect against contaminating microbes in urine (MRSA); format: cell-based, Staphylococcus aureus; conditions: 10 ppm, 50 ppm, 100 ppm, FIG. 6
Protocol: (§4) The testing method was in accordance with the above-described Examples. The samples prepared as stated above were used.
(§5) Tests were conducted twice using similar samples.

[3] = tested on: Campylobacter jejuni JCM2013 on chicken meat (breast meat)
Protocol: 1) Enterohemorrhagic Escherichia coli O157: Escherichia coli O157 sakai strain (1996, RIMD0509952) 2) Campylobacter: Campylobacter jejuni JCM2013
2) Campylobacter: Campylobacter jejuni JCM2013 (selected medium: CCDA plate medium)
The selected medium was streaked. A single colony of tested microbes cultured for 48 hours at 37° C. in microaerophilic conditions was extracted with a platinum loop. The colony was then inoculated in a 50 mL×3 BHI medium, shaken and cultured under aerobic conditions for 48 hours at 37° C. (shake rate: 100 rpm).
Chicken meat (breast meat): About 2 kg of domestic (location unknown) chicken breast meat that was purchased the day before the tests was used.
Each cultured microbial solution was centrifuged (rate of centrifugation: 6000 rpm). The liquid medium of the supernatant was disposed. Then, the microbial solution prepared by diluting with sterilized saline to approximately 10^7 was put into a manually operated spray in the same amount to make a 10^6 microbe suspension.

[4] = tested on: contaminating microbes in urine (MDRP); test: Growth suppressing effect against contaminating microbes in urine (MDRP); format: cell-based, Pseudomonas aeruginosa; conditions: 10 ppm, 50 ppm, 100 ppm, FIGS. 5 and 6
Protocol: as §4, §5

[5] = tested on: Microbes of the genus Paenibacillus; test: Microbe disinfecting effect on microbes isolated from isolator, Paenibacillus; format: cell-based; conditions: average ± S.D.
Protocol: as §1, §2
(1) A single colony of each isolated microbe that was cultured in a BHI agar medium was cultured for two days at 37° C. in 5 mL of BHI medium. (2) After collecting microbes by centrifuging (3000×g, 4° C., 10 min) the culturedmicrobial solution, the microbes were washed twice with sterile saline (0.85%) to prepare a microbial solution of about 10^7 CFU/ml (Inoculam value). (3) Each agent of interest was prepared by diluting with sterile ion exchange water to have a predetermined concentration. 9 mL of each diluent was dispensed into a sterilized test tube. (4) 1 mL of the microbial solution prepared in (2) was added to the agent-containing test tube. A vortex mixer was used to mix well. (5) 1 mL was sampled from the test tube of (4) at a predetermined time. The sampling was added to and mixed with 0.05 mol/L sodium thiosulfate solution for neutralization. (6) 1 mL of the solution after the neutralization treatment was spread on a petri dish. The solution was pour-plate cultured for 24 hours at 37° C. in a BHI agar medium. The number of surviving microbes that had grown was measured.
as §3

[6] = Sampling 3: after soaking 30 minutes at 400 ppm, raw material:liquid = 1:10
[7] = Sampling 4: after soaking 30 minutes at 400 ppm, washing and draining
[8] = Sampling 5: after soaking 30 minutes at 400 ppm, washing, storage for 24 hours at 4° C.

OCl [Sodium hypochlorite]
number of E. coli O-157 on the chicken meat [1, 6]: 3.3 × 10^4 cfu/mL | number of E. coli O-157 on the chicken meat [1, 7]: 1.6 × 10^4 cfu/mL | number of E. coli O-157 on the chicken meat [1, 8]: 5.0 × 10^4 cfu/mL | number of surviving microbes ([2]; 200 ppm, 5 min): 5.60 ± 0.22 log10 cfu/mL | number of surviving microbes ([2]; 200 ppm, 10 min): 5.53 ± 0.62 log10 cfu/mL | number of surviving microbes ([2]; 200 ppm, 30 min): 5.34 ± 0.34 log10 cfu/mL | number of surviving microbes ([2]; 500 ppm, 5 min): 5.55 ± 0.45 log10 cfu/mL | number of surviving microbes ([2]; 500 ppm, 10 min): 5.49 ± 0.28 log10 cfu/mL | number of surviving microbes ([2]; 500 ppm, 30 min): 4.85 ± 0.32 log10 cfu/mL | number of surviving microbes ([2]; 1000 ppm, 5 min): 3.55 ± 0.46 log10 cfu/mL | growth suppressing effect (MRSA): growth suppressing effect | number of Campylobacter on the chicken meat [3, 6]: 2.5 × 10^5 cfu/mL | number of Campylobacter on the chicken meat [3, 7]: 3.2 × 10^5 cfu/mL | number of Campylobacter on the chicken meat [3, 8]: 4.8 × 10^5 cfu/mL | growth suppressing effect [4]: growth suppressing effect | number of surviving microbes ([5]; 200 ppm, 5 min): 4.80 ± 0.25 log10 cfu/mL | number of surviving microbes ([5]; 200 ppm, 10 min): 4.86 ± 0.41 log10 cfu/mL | number of surviving microbes ([5]; 200 ppm, 30 min): 3.75 ± 0.53 log10 cfu/mL | number of surviving microbes ([5]; 500 ppm, 5 min): 4.07 ± 0.12 log10 cfu/mL | number of surviving microbes ([5]; 500 ppm, 10 min): 3.61 ± 0.09 log10 cfu/mL | number of surviving microbes ([5]; 500 ppm, 30 min): 3.61 ± 0.26 log10 cfu/mL | number of surviving microbes ([5]; 1000 ppm, 5 min): <2.00 log10 cfu/mL | number of surviving microbes ([5]; 1000 ppm, 10 min): <2.00 log10 cfu/mL | number of surviving microbes ([5]; 1000 ppm, 30 min): <2.00 log10 cfu/mL

Sodium chlorite
growth suppressing effect (MRSA): growth suppressing effect | growth suppressing effect [4]: growth suppressing effect
